According to ChEMBL document CHEMBL5465560, “Selectivity Literature for EUbOPEN Chemogenomic Library” (2024):
Values belong to the compound of their own block, whether it stands above or below them.

Assays:
[1] = target: Tyrosine-protein kinase Fyn (Homo sapiens) (UniProt P06241); experiment: Selectivity interaction (Kinase panel (Z-LYTE Assay)) EUB0001632a FYN; conditions: at 10 µM
[2] = target: T1, Serine/threonine-protein kinase ULK2 (Homo sapiens) (UniProt Q8IYT8); experiment: Selectivity interaction (KinomeScan (DiscoverX)) EUB0000666a ULK2; conditions: at 10 µM
T1 sequence (whole entry): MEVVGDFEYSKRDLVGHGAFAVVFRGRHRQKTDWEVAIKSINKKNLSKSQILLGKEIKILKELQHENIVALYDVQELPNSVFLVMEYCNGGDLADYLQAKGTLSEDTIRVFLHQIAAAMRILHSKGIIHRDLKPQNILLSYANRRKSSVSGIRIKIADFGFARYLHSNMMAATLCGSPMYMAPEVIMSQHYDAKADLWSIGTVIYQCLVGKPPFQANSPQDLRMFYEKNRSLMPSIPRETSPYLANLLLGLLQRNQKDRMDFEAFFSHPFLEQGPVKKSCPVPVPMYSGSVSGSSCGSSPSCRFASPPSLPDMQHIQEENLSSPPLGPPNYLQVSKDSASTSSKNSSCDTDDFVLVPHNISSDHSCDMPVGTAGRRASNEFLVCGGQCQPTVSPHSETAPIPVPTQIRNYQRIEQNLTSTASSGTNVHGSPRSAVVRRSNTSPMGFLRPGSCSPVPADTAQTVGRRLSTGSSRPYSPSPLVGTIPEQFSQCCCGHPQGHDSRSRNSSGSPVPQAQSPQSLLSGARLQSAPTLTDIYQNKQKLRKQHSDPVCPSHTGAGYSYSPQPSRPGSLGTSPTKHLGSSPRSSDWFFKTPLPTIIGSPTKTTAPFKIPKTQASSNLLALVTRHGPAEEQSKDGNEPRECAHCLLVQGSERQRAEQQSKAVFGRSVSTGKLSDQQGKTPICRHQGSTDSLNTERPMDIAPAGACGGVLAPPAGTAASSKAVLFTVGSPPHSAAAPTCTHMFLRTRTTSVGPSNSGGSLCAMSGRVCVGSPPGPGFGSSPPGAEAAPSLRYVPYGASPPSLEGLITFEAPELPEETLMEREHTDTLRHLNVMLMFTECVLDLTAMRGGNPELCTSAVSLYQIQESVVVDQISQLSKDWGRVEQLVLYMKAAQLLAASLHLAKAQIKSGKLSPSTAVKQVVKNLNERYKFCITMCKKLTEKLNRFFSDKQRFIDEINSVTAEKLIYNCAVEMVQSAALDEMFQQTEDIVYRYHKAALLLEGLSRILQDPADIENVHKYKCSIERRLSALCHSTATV

[3] = target: T2, Aurora kinase A (Homo sapiens) (UniProt O14965); experiment: Selectivity interaction (ActivX KiNativ screen (kinase selectivity in THP-1 cell lysates)) EUB0000639a STK6; type: subcellular; conditions: lysate
T2 sequence (whole entry): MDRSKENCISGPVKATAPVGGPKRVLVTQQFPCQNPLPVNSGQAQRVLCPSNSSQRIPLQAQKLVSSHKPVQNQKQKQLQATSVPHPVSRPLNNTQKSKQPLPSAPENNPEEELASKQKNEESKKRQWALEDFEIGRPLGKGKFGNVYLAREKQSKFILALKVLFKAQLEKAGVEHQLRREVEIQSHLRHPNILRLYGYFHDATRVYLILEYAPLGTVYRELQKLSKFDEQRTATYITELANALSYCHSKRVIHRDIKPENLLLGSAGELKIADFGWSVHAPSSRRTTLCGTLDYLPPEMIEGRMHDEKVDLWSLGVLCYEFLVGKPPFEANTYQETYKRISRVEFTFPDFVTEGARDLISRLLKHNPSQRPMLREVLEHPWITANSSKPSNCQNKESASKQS

[4] = target: Leukocyte tyrosine kinase receptor (Homo sapiens, UniProt P29376); experiment: Selectivity interaction (KinomeScan (DiscoverX)) EUB0001049a LTK; conditions: at 1 µM
[5] = target: Dual specificity protein kinase CLK2 (Homo sapiens, UniProt P49760); experiment: Selectivity interaction (KinomeScan (DiscoverX)) EUB0000655a CLK2; conditions: at 10 µM
[6] = target: NT-3 growth factor receptor (Homo sapiens, UniProt Q16288); experiment: Selectivity interaction (KinomeScan (DiscoverX)) EUB0000045b NTRK3
[7] = target: Platelet-derived growth factor receptor alpha (Homo sapiens, UniProt P16234); experiment: Selectivity interaction (KinomeScan (DiscoverX)) EUB0000045b PDGFRA
[8] = target: T3, Mitogen-activated protein kinase kinase kinase kinase 3 (Homo sapiens) (UniProt Q8IVH8); experiment: Selectivity interaction (KinomeScan (DiscoverX)) EUB0001079a MAP4K3; conditions: at 1 µM
T3 sequence (whole entry): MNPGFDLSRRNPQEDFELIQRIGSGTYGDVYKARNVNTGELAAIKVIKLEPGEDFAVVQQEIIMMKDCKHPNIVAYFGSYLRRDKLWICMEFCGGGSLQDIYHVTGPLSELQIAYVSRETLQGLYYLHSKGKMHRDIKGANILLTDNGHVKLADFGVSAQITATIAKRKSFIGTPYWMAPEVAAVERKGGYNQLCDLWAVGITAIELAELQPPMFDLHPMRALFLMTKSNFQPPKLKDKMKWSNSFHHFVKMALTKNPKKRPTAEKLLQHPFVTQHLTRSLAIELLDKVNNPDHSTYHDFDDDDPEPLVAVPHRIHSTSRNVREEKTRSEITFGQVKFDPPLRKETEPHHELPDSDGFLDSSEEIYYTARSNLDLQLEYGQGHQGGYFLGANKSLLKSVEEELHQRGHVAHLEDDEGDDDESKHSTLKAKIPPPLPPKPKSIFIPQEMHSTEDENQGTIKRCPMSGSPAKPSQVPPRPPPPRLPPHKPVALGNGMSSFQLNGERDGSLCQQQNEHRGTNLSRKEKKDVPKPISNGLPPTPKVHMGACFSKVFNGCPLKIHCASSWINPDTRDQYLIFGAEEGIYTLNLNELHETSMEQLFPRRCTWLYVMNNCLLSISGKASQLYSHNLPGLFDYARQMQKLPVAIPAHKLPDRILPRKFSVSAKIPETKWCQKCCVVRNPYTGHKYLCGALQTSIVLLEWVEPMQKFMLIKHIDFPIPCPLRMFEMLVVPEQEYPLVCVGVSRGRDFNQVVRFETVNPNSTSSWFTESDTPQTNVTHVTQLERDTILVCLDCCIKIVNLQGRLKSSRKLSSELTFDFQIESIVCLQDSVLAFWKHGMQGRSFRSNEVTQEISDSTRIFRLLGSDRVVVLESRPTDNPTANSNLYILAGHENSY

Sequence of Platelet-derived growth factor receptor alpha (P16234 whole entry): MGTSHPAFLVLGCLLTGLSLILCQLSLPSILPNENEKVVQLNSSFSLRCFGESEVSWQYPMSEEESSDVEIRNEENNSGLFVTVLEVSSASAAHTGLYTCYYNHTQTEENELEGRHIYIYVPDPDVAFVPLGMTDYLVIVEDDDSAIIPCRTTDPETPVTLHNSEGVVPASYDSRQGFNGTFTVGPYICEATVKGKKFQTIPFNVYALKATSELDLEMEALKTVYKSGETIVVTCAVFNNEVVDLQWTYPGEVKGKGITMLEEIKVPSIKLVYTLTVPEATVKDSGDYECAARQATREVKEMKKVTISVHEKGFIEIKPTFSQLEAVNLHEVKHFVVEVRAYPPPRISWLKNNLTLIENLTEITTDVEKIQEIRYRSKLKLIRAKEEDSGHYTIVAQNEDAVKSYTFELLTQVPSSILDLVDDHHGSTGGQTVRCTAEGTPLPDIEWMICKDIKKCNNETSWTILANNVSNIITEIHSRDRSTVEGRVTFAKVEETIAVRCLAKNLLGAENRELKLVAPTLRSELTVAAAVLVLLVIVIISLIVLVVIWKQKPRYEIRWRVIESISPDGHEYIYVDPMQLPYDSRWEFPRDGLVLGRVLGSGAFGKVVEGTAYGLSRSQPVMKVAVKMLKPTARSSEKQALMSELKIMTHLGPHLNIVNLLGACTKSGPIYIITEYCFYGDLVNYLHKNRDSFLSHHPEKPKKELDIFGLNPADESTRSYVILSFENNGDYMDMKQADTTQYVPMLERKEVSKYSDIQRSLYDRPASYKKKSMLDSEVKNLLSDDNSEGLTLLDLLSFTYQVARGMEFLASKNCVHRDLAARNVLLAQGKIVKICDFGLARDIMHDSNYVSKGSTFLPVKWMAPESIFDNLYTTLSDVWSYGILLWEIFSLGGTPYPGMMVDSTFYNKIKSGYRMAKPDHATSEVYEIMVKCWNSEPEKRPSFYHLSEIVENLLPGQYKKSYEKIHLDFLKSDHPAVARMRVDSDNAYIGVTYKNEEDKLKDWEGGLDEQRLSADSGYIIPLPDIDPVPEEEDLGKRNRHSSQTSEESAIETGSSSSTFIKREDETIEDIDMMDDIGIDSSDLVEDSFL
Sequence of NT-3 growth factor receptor (Q16288 32-839 limits assumed): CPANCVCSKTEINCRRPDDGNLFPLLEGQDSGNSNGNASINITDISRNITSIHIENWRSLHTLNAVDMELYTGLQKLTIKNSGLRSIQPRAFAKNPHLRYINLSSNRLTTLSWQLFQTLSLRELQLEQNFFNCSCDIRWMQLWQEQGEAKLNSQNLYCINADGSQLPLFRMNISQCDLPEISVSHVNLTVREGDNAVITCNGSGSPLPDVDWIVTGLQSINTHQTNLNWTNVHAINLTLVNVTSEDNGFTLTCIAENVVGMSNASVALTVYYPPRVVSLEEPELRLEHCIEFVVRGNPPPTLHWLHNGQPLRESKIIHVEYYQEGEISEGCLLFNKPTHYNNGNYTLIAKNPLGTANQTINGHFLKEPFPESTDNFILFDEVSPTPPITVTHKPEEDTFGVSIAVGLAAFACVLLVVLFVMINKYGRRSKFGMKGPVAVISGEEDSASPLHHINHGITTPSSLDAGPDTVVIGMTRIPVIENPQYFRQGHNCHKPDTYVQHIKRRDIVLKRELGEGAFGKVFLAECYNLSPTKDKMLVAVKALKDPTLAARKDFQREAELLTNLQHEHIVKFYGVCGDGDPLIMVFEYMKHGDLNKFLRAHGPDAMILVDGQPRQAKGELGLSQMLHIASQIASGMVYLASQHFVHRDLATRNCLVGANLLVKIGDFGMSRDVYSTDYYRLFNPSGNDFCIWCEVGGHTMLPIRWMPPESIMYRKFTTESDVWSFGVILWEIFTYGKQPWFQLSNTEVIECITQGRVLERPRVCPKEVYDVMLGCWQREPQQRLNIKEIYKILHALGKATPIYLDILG
Sequence of Tyrosine-protein kinase Fyn (Homo sapiens) (P06241 2-537 limits assumed): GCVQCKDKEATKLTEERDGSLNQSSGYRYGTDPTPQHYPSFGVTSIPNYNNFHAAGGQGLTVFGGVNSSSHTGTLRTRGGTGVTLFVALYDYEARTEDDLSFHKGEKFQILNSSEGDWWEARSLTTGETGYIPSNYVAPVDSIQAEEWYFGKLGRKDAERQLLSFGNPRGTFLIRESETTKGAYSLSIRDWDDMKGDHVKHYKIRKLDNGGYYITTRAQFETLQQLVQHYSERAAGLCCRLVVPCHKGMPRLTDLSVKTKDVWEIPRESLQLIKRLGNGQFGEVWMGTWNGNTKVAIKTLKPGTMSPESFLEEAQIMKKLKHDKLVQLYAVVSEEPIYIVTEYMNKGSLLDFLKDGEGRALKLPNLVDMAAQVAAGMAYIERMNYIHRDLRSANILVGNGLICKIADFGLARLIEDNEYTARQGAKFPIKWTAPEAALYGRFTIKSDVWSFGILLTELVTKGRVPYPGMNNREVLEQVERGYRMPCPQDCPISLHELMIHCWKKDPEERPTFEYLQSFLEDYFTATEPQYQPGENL
Sequence of Dual specificity protein kinase CLK2 (P49760 whole entry, looked up): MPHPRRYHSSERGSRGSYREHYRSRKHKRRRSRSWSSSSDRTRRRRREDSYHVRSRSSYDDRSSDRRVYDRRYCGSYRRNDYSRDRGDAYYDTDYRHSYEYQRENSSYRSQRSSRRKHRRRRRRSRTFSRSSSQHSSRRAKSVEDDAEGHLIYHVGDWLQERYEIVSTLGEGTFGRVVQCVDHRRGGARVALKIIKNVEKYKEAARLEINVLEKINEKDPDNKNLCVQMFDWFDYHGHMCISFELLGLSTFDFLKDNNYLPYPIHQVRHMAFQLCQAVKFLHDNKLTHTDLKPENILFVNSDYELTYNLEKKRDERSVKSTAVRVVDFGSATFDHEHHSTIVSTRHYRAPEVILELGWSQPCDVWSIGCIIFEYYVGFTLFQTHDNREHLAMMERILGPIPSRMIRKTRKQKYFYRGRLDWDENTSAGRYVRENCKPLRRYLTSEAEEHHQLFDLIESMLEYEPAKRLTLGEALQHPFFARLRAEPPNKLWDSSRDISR
Sequence of Leukocyte tyrosine kinase receptor (P29376 whole entry): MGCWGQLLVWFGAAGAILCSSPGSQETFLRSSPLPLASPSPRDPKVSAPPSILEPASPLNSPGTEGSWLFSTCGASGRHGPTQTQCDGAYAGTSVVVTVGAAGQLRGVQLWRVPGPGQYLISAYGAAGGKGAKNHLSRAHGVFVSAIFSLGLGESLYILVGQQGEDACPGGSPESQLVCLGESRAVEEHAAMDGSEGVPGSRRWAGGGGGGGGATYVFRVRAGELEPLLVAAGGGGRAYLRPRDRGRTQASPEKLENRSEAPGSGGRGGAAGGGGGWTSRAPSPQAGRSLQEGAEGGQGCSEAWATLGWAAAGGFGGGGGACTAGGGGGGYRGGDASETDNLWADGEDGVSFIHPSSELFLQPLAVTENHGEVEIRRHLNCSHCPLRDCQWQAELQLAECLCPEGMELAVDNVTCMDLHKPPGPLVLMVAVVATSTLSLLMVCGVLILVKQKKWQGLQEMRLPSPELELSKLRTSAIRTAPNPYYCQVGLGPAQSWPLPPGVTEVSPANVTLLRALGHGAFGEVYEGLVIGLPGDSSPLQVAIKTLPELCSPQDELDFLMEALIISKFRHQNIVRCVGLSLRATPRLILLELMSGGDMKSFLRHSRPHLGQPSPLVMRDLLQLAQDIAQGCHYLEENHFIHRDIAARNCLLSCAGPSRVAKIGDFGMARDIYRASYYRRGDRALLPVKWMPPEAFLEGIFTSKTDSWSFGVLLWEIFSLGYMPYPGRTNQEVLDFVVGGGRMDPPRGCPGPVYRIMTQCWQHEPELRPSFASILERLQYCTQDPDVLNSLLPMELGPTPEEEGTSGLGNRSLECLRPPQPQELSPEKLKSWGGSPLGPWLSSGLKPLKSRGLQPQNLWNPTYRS

% of control [1]: 1.52%
SMILES: Cn1cc(-n2cnc3c(NCc4nc5cc(Cl)c(Cl)cc5[nH]4)nc(N4CCOCC4)nc32)cn1

SMILES: O=C(NOC[C@H](O)CO)c1ccc(F)c(F)c1Nc1ccc(I)cc1F
% of control [2]: 97%

% of inhibition ([3]; at 0.01 µM): -0.7%
% of inhibition ([3]; at 0.04 µM): -2.4%
% of inhibition ([3]; at 0.2 µM): 2.8%
% of inhibition ([3]; at 1 µM): 26.7%
% of inhibition ([3]; at 5 µM): 59.9%
SMILES: CC[C@@H]1[C@H](F)C(=O)N[C@@H]1COc1nccc2cc(C(N)=O)c(OC)cc12 [ZIMLOVISERTIB]

SMILES: COc1cc(Nc2nc(C)cc(-c3cnn4nc(OC)ccc34)n2)cc(C(F)(F)F)c1
% of control [4]: 91%

SMILES: CN(C)CCOc1ccc(-c2nc(-c3ccncc3)c(-c3ccc4c(c3)CC/C4=N\O)[nH]2)cc1
% of control [5]: 52%

SMILES: C=CC(=O)Nc1cc(-n2c(=O)ccc3cnc4ccc(-c5ccc(NS(C)(=O)=O)cc5)cc4c32)ccc1C
% of control ([6]; at 1 µM): 100%
% of control ([6]; at 10 µM): 100%
% of control ([7]; at 1 µM): 92%
% of control ([7]; at 10 µM): 100%

SMILES: Nc1cnc(N2CCc3cc(S(=O)(=O)Nc4c(F)cc(Cl)cc4F)cc(N4CCCC4=O)c32)nc1 [TP-020n]
% of control [8]: 93%
